Key:
Jurkat cells = assay: Cell viability assay (ATPlite), Jurkat; assay type: cell-based, human; settings: Homo sapiens, Jurkat; class symbols; NA: not active under assay conditions
Protocol: This assay was used for the H2171 and MM1S cell data shown in Table 2, and for the Jurkat (an immortalized line of human T lymphocyte cells), Ly1 (OCI-Ly1 human non-Hodgkin lymphoma cell line), Ly4 (OCI-Ly4 human non-Hodgkin lymphoma cell line), H2172 (NCI-H2172 human non-small cell lung cancer cell line), and CA-46 (a human Burkitt's lymphoma cell line) cell data shown in Table 3 and FIG. 12. Cells were counted and adjusted to 60,000 cells/mL. Using a Biotek EL406, 50 μL of cells are media were distributed into 384 well white plates from Thermo. Immediately after plating, compound in DMSO was distributed to plates. For large plate sets, cells were returned to 37° C. incubator while not in use.
Compounds were added to plates using a 100 nL 384 well pin transfer manifold on a Janus workstation. Stocks were arrayed in 10 point quadruplicate dose response in DMSO stock in 384 well Greiner compound plates. After addition of compound, plates were incubated for three days in a 37° C. incubator.
Cell viability was read out using ATPlite from Perkin Elmer. Plates were removed from the incubator and brought to room temperature prior to use. Lyophilized powder was resuspended in lysis buffer and diluted 1:2 with DI water. 25 μL of this solution was added to each well using the Biotek liquid handler. Plates were sealed with adherent aluminum seals prior to vortexing and spinning down at 1000 g for 1 minute. Plates were incubated for 15 minutes at room temperature before signal was read on an Envision Plate Reader.

c-Myc/Max/Ebox DNA = c-Myc/Max/Ebox DNA (Homo sapiens, UniProt P01106); assay: c-Myc/Max/Ebox DNA AlphaScreen assay; assay type: binding; parameters: An exemplary assay uses full-length human c-Myc and Max proteins; his6 (cleaved yes); made in house; settings: class symbols; NA: not active under assay conditions; read-out: Myc/Max IC50
Sequence of c-Myc/Max/Ebox DNA (P01106 16-454): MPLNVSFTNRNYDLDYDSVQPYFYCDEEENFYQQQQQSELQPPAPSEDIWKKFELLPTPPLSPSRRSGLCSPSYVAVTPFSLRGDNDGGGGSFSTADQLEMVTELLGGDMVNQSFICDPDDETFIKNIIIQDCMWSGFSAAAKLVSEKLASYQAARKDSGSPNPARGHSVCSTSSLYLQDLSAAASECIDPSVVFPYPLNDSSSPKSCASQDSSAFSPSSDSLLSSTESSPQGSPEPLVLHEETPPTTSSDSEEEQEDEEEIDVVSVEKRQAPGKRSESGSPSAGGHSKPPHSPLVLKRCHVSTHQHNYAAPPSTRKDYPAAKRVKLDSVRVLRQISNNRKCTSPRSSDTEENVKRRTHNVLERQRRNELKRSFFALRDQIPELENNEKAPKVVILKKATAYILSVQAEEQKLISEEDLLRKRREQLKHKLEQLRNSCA
How it was run: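 Proximity read-out of Myc–Max–DNA complex formation in 50 mM HEPES pH 8.0 with 500 μM DTT. Compounds contact tag-free c-Myc (25 nM), Ebox oligo (10 nM) and acceptor beads first. His6-Max (1.25 nM) with donor beads follows, then 2 h incubation in low light with DMSO ≤2% v/v.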

Row | EC50 (Jurkat cells) | IC50 (c-Myc/Max/Ebox DNA) | Structure (SMILES)
1 | 10 to 100 µM | ≥ 100 µM | Cc1ccc(C)n1-c1cc(C(=O)N2CCN(c3cccnc3)CC2)ccc1C(=O)O [Compound 194]
2 | ≥ 100 µM | 1 to 10 µM | Cc1ccc(C)n1-c1cc(C(=O)N2CCN(c3ccccc3C(=O)O)CC2)ccc1C(=O)O [Compound 198]
3 | 10 to 100 µM | ≥ 100 µM | Cc1ccc(C)n1-c1ccccc1C(=O)NS(=O)(=O)C1CC1 [Compound 190]
4 | 10 to 100 µM | ≥ 100 µM | Cc1ccc(C)n1-c1ccccc1C(=O)NS(=O)(=O)c1ccccc1 [Compound 191]
5 | ≥ 100 µM | 10 to 100 µM | Cc1ccc(C)n1-c1cc(C(=O)N2C[C@H](c3ccccc3)[C@@H](O)C2)ccc1C(=O)O [Compound 217]
6 | < 10 µM | 1 to 10 µM | Cc1ccc(C)n1-c1cc(-c2nnc(-c3ccc(OCc4ccccc4)c(OCc4ccccc4)c3OCc3ccccc3)o2)ccc1C(=O)O [Compound 219]
7 | ≥ 100 µM | 10 to 100 µM | Cc1ccc(C)n1-c1ccccc1C(=O)NS(C)(=O)=O [Compound 180]
8 | ≥ 100 µM | ≥ 100 µM | Cc1ccc(C)n1-c1ncccc1C(=O)NS(C)(=O)=O [Compound 187]
9 | 10 to 100 µM | 1 to 10 µM | Cc1ccc(C)n1-c1cc(C(=O)N2CCCC(c3ccc(CC(=O)O)cc3)C2)ccc1C(=O)O (stereo not shown) [Compound 208]
10 | 10 to 100 µM | ≥ 100 µM | COc1cccc([C@H]2CN(C(=O)c3ccc(C(=O)O)c(-n4c(C)ccc4C)c3)C[C@@H]2O)c1 [Compound 225]
11 | 10 to 100 µM | 10 to 100 µM | Cc1ccc(C)n1-c1cc(-c2nnc(-c3cccc(C(=O)O)c3)o2)ccc1C(=O)O [Compound 167]
12 | ≥ 100 µM | 10 to 100 µM | Cc1ccc(C)n1-c1cc(C(=O)N2CCN(C(=O)c3cccnc3)CC2)ccc1C(=O)O [Compound 216]
13 | 10 to 100 µM | 10 to 100 µM | Cc1cccc(C2CCCN(C(=O)c3ccc(C(=O)O)c(-n4c(C)ccc4C)c3)C2)c1 (stereo not shown) [Compound 212]
14 | 10 to 100 µM | 10 to 100 µM | Cc1ccc(C)n1-c1cc(-c2nnc(-c3cccc(C(=O)NS(C)(=O)=O)c3)o2)ccc1C(=O)O [Compound 222]
15 | ≥ 100 µM | 1 to 10 µM | Cc1ccc(C)n1-c1cccnc1C(=O)O [Compound 181]
16 | 10 to 100 µM | 1 to 10 µM | COc1cccc(C2CCCN(C(=O)c3ccc(C(=O)O)c(-n4c(C)ccc4C)c3)C2)c1 (stereo not shown) [Compound 189]
17 | 10 to 100 µM | 10 to 100 µM | Cc1ccc(C)n1-c1cc(-c2nnc(-c3ccc(C(=O)O)cc3)o2)ccc1C(=O)O [Compound 206]
18 | 10 to 100 µM | 10 to 100 µM | Cc1ccc(C)n1-c1cc(C(=O)N2CCCC(c3ccc(Cl)cc3)C2)ccc1C(=O)O (stereo not shown) [Compound 201]
19 | ≥ 100 µM | 10 to 100 µM | Cc1ccc(C)n1-c1cc(C(=O)N2CCCC(c3ccc(C(=O)O)cc3)C2)ccc1C(=O)NS(C)(=O)=O (stereo not shown) [Compound 221]
20 | ≥ 100 µM | 1 to 10 µM | Cc1ccc(C)n1-c1cc(C(=O)N2CCCC(c3cccc(C(=O)O)c3)C2)ccc1C(=O)O (stereo not shown) [Compound 169]
21 | ≥ 100 µM | ≥ 100 µM | COC(=O)c1ccc(C(=O)NNC(=O)OC(C)(C)C)cc1-n1c(C)ccc1C [Compound 184]
22 | ≥ 100 µM | 10 to 100 µM | Cc1cnc(C(=O)N2CCN(C(=O)c3ccc(C(=O)O)c(-n4c(C)ccc4C)c3)CC2)cn1 [Compound 215]
23 | ≥ 100 µM | 10 to 100 µM | O=C(O)c1ccccc1-n1c(Br)ccc1C(F)(F)F [Compound 197]
24 | ≥ 100 µM | 1 to 10 µM | Cc1ccc(C)n1-c1cc(C(=O)N2CCCC(c3ccc(C(=O)NS(C)(=O)=O)cc3)C2)ccc1C(=O)O (stereo not shown) [Compound 205]
25 | ≥ 100 µM | 10 to 100 µM | COc1cccc(C(=O)N2CCN(C(=O)c3ccc(C(=O)O)c(-n4c(C)ccc4C)c3)CC2)c1 [Compound 220]
26 | ≥ 100 µM | 10 to 100 µM | Cc1ccc(C)n1-c1cc(C(=O)N2CCCC(c3ccccc3)C2)ccc1C(=O)O (stereo not shown) [Compound 188]

Source: US9567301B2, “Pyrrol-1-yl benzoic acid derivatives useful as myc inhibitors” (Whitehead Institute for Biomedical Research, priority 2012, dated 2017)
